According to the supplement of paper PMC10307832:

Key:
Experiment in all cases: relative viability (nuclei count vs DMSO), 5 days (fraction); higher = more cells survive
AT9283 + Vorinostat = compound: O=C(Nc1c[nH]nc1-c1nc2ccc(CN3CCOCC3)cc2[nH]1)NC1CC1 [AT9283] + O=C(CCCCCCC(=O)Nc1ccccc1)NO [Vorinostat] (partner 1 µM)
Procedure, shortened: (§1)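 The day after seeding in 1536-well plates, lung cancer cell lines were treated by pin tool with a single drug, or with a fixed anchor-drug dose together with five library-drug doses (not always all listed) in √10 steps. After 5 days, a combined fix-and-stain solution (final 0.05% Triton X-100, 1% formaldehyde, 1 ug/ml Hoechst) was added. Nuclei counted on 4× images gave relative viability as treated counts over vehicle counts, reported as the median of duplicate plates.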

AT9283 + Lapatinib = compound: O=C(Nc1c[nH]nc1-c1nc2ccc(CN3CCOCC3)cc2[nH]1)NC1CC1 [AT9283] + CS(=O)(=O)CCNCc1ccc(-c2ccc3ncnc(Nc4ccc(OCc5cccc(F)c5)c(Cl)c4)c3c2)o1 [Lapatinib] (partner 2 µM)
Procedure, shortened: as §1

AT9283 + Navitoclax = compound: O=C(Nc1c[nH]nc1-c1nc2ccc(CN3CCOCC3)cc2[nH]1)NC1CC1 [AT9283] + CC1(C)CCC(c2ccc(Cl)cc2)=C(CN2CCN(c3ccc(C(=O)NS(=O)(=O)c4ccc(N[C@H](CCN5CCOCC5)CSc5ccccc5)c(S(=O)(=O)C(F)(F)F)c4)cc3)CC2)C1 [Navitoclax] (partner 0.5 µM)
Procedure, shortened: as §1

Row | Cell Line | relative viability (AT9283 + Vorinostat; first compound 0.003 µM) | relative viability (AT9283 + Vorinostat; first compound 0.03 µM) | relative viability (AT9283 + Vorinostat; first compound 0.09487 µM) | relative viability (AT9283 + Vorinostat; first compound 0.3 µM) | relative viability (AT9283 + Lapatinib; first compound 0.003 µM) | relative viability (AT9283 + Lapatinib; first compound 0.03 µM) | relative viability (AT9283 + Lapatinib; first compound 0.09487 µM) | relative viability (AT9283 + Lapatinib; first compound 0.3 µM) | relative viability (AT9283 + Navitoclax; first compound 0.003 µM) | relative viability (AT9283 + Navitoclax; first compound 0.03 µM) | relative viability (AT9283 + Navitoclax; first compound 0.09487 µM) | relative viability (AT9283 + Navitoclax; first compound 0.3 µM)
1 | 201T | 0.844 | 0.653 | 0.471 | 0.304 | 0.816 | 0.96 | 0.904 | 0.409 | 1.24 | 1.21 | 1.21 | 0.524
2 | A549 | – | – | – | – | 1.02 | 0.0919 | 0.0686 | 0.0884 | 1.14 | 0.0945 | 0.0413 | 0.0451
3 | A-427 | 0.902 | 0.471 | 0.269 | 0.323 | 0.936 | 0.897 | 0.671 | 0.219 | 1.05 | 0.691 | 0.174 | 0.167
4 | ABC-1 | 1.05 | 0.373 | 0.359 | 0.258 | 0.938 | 1.19 | 0.476 | 0.46 | – | – | – | –
5 | BEN | 0.515 | 0.49 | 0.33 | 0.324 | 0.582 | 0.546 | 0.158 | 0.243 | 0.0788 | 0.0854 | 0.0605 | 0.0596
6 | CAL-12T | 0.804 | 0.394 | 0.237 | 0.166 | 0.587 | 0.299 | 0.23 | 0.238 | 1.47 | 0.879 | 0.261 | 0.21
7 | COR-L23 | 0.443 | 0.119 | 0.0932 | 0.0899 | 1 | 0.12 | 0.129 | 0.172 | 0.964 | 0.301 | 0.123 | 0.126
8 | COR-L 105 | 0.839 | 0.343 | 0.383 | 0.321 | 0.371 | 0.256 | 0.223 | 0.337 | 0.83 | 0.27 | 0.293 | 0.281
9 | Calu-6 | – | – | – | – | 1.1 | 0.33 | 0.245 | 0.27 | 0.794 | 0.113 | 0.134 | 0.102
10 | ChaGo-K-1 | 0.662 | 0.447 | 0.325 | 0.216 | – | – | – | – | 0.694 | 0.746 | 0.244 | 0.299
11 | EBC-1 | – | – | – | – | 0.217 | 0.178 | 0.208 | 0.182 | 0.461 | 0.203 | 0.145 | 0.17
12 | EKVX | 0.673 | 0.545 | 0.302 | 0.287 | 0.241 | 0.188 | 0.128 | 0.108 | 0.697 | 0.861 | 0.435 | 0.264
